Source: ChEMBL document CHEMBL1150106, “Carvone and perillaldehyde interfere with the serum-induced formation of filamentous structures in Candida albicans at substantially lower concentrations than those causing significant inhibition of growth” (J Nat Prod, 2002)
Active and inactive are the calls of the source. No cut-off for these calls is given here.

Tests used:
Format in all cases: functional, organism-based
Candida albicans [1] = experiment: Anticandidal activity against Candida albicans H317 assessed as inhibition of transformation of organism from cellular yeast to filamentous form at 125 uM preincubated for 2 hrs before addition of fetal bovine serum measured after 22 hrs by phase contrast microscopy
Candida albicans [2] = experiment: Growth inhibition of cellular yeast form of Candida albicans H317 at 5 mM after 2 hrs
Candida albicans [3] = experiment: Anticandidal activity against Candida albicans H317 assessed as inhibition of transformation of organism from cellular yeast to filamentous form at 250 uM preincubated for 2 hrs before addition of fetal bovine serum measured after 22 hrs by phase contrast microscopy

SMILES | Activity (Candida albicans [1]) | Activity (Candida albicans [2]) | Activity (Candida albicans [3])
C=C(C)[C@@H]1CC=C(C=O)CC1 | Active | Active | 
C=C(C)[C@H]1CC=C(C)C(=O)C1 |  | Active | Active
